Drawing on PubChem BioAssay (NCI), this text covers TGI and GI50 for 5 molecules.

Molecules are shown by their SMILES. Where “and” joins values, the source holds several entries; their conditions need not be identical. Identical values can stand only once.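 Assay format: 96-well plates, 48-hour exposure. GI50 marks 50% less growth. TGI is the concentration that stops growth completely.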 A value given as a limit tells only on which side of the number the result lay.

Test systems include 786-0 renal; TK-10 renal; MDA-N; SNB-75 CNS; OVCAR-3 ovarian; HOP-92 NSCLC; SF-268 CNS; SK-OV-3 ovarian; DMS 114 small cell lung; CAKI-1 renal.
Common to all, as to experiment: growth of human tumour cells (NCI), 48 h

On to `O=C1c2ccccc2C(=O)c2c1ccc1conc21`, for which the TGI with 786-0 renal was found to be 5.79 µM; with TK-10 renal it was 15.3 µM; in the experiment with MDA-N it was 1.41 µM; with SNB-75 CNS it was 20.5 µM; with OVCAR-3 ovarian it was 0.974 µM; in the experiment with HOP-92 NSCLC it was 3.04 µM. The TGI in the experiment with SF-268 CNS was 6.8 µM; with SK-OV-3 ovarian it was 13.3 µM; in the experiment with DMS 114 small cell lung, 3.42 µM; with CAKI-1 renal it was 8.93 µM.

Turning to `CCC/C=C/C=C/C(=O)OC1/C(=C/C(=O)OC)CC2CC(C(C)O)OC(=O)CC(O)CC3CC(OC(C)=O)C(C)(C)C(O)(CC4C/C(=C/C(=O)OC)CC(/C=C/C(C)(C)C1(O)O2)O4)O3` (centres undefined), the GI50 is over 12.5 µM in the experiment on 786-0 renal; over 11 µM in the experiment with TK-10 renal; over 12.5 µM in the experiment on MDA-N; 10.3 µM and 2.85 µM and > 12.5 µM in the experiment with SNB-75 CNS; > 10.9 µM and 8.33 µM and > 12.5 µM in the experiment on OVCAR-3 ovarian; 7.79 µM and 5.61 µM and 4.84 µM in the experiment with HOP-92 NSCLC. The GI50 with SF-268 CNS is 6.18 µM and > 12.5 µM; in the experiment on SK-OV-3 ovarian it was > 10.9 µM and 8.51 µM and > 12.5 µM; with DMS 114 small cell lung, > 10.9 µM and 2.92 µM; with CAKI-1 renal, 2.79 µM and 4.05 µM and > 12.5 µM. Besides, the TGI in the experiment on 786-0 renal was 11 µM and > 12.5 µM; with TK-10 renal, over 12.5 µM; in the experiment on MDA-N, 11 µM and > 12.5 µM; with SNB-75 CNS, 10.9 µM and 9.84 µM and > 12.5 µM; in the experiment with OVCAR-3 ovarian, > 10.9 µM and 11 µM and > 12.5 µM; in the experiment with HOP-92 NSCLC, 10.9 µM and 11 µM and > 12.5 µM. The TGI in the experiment on SF-268 CNS was 9.13 µM and 11 µM and > 12.5 µM; with SK-OV-3 ovarian, > 10.9 µM and 11 µM and > 12.5 µM; in the experiment with DMS 114 small cell lung it was > 10.9 µM and 8.97 µM; with CAKI-1 renal, 10.9 µM and 11 µM and > 12.5 µM.

For `COc1ccc2nc3cc(Cl)ccc3c(Sc3ccc(N)cc3)c2c1`, the TGI was determined as 19.8 µM with 786-0 renal; 25.9 µM in the experiment with TK-10 renal; 23.2 µM in the experiment on SNB-75 CNS; 21.5 µM in the experiment on OVCAR-3 ovarian; 39.7 µM in the experiment with HOP-92 NSCLC; 34.4 µM in the experiment with SF-268 CNS. In addition, the TGI with SK-OV-3 ovarian is 18.3 µM; in the experiment with DMS 114 small cell lung it was 19 µM; in the experiment on CAKI-1 renal, 29.6 µM.

For the molecule `COc1ccc2[nH]c3c(C)c4c(c(C)c3c2c1)CN(C)C=C4`, the TGI stood at 4.05 µM with 786-0 renal; 65.8 µM with TK-10 renal; 34.6 µM with MDA-N; 0.698 µM in the experiment on SNB-75 CNS; 34.9 µM in the experiment with OVCAR-3 ovarian; 19.5 µM in the experiment on HOP-92 NSCLC. In addition, the TGI with SF-268 CNS turned out to be 0.815 µM; with SK-OV-3 ovarian, 56.6 µM; with DMS 114 small cell lung, 3.05 µM; with CAKI-1 renal it was 57.5 µM.

On to `O=C(O)CCC(O)=C1S(=O)(=O)OCCOS1(=O)=O`, for which the TGI in the experiment with 786-0 renal, with TK-10 renal, with MDA-N, with SNB-75 CNS, in the experiment on OVCAR-3 ovarian and with HOP-92 NSCLC was over 100 µM in each case. Further, the TGI in the experiment with SF-268 CNS, in the experiment on SK-OV-3 ovarian, in the experiment with DMS 114 small cell lung and in the experiment on CAKI-1 renal was over 100 µM in each case.
